Measurements: ChEMBL document CHEMBL4706489, “Hydrogen sulfide releasing oridonin derivatives induce apoptosis through extrinsic and intrinsic pathways” (Eur J Med Chem, 2020)

Experiments:
[1] = system: L02; assay: Cytotoxicity against human L02 cells assessed as cell viability after 72 hrs by MTT assay; conditions: L02, 72 h
[2] = Cytotoxicity against human PBMC cells assessed as cell viability after 72 hrs by MTT assay
[3] = system: B16; assay: Antiproliferative activity against mouse B16 cells assessed as reduction in cell viability after 72 hrs by MTT assay; conditions: B16, 72 h
[4] = system: MCF7; assay: Antiproliferative activity against human MCF7 cells assessed as reduction in cell viability after 72 hrs by MTT assay; conditions: MCF7, 72 h
[5] = system: K562; assay: Antiproliferative activity against human K562 cells assessed as reduction in cell viability after 72 hrs by MTT assay; conditions: K562, 72 h
[6] = system: HepG2; assay: Antiproliferative activity against human HepG2 cells assessed as reduction in cell viability after 72 hrs by MTT assay; conditions: HepG2, 72 h
[7] = system: HCT-116; assay: Antiproliferative activity against human HCT-116 cells assessed as reduction in cell viability after 72 hrs by MTT assay; conditions: HCT-116, 72 h

SMILES	IC50 [1]	IC50 [2]	IC50 [3]	IC50 [4]	IC50 [5]	IC50 [6]	IC50 [7]
C=C1C(=O)[C@]23[C@H](OC(=O)CCCC(=O)OCCOc4ccc(-c5cc(=S)ss5)cc4)[C@H]1CC[C@H]2[C@@]12CO[C@@]3(O)[C@@H](O)[C@@H]1C(C)(C)CC[C@@H]2OC(C)=O	26.8 µM	> 50 µM	11.1 µM	> 50 µM	1.86 µM	4.78 µM	> 50 µM
C=C1C(=O)[C@]23[C@H](OC(=O)CCC(=O)OCCCCCCOc4ccc(-c5cc(=S)ss5)cc4)[C@H]1CC[C@H]2[C@@]12CO[C@@]3(O)[C@@H](O)[C@@H]1C(C)(C)CCC2=O	> 50 µM	> 50 µM	> 50 µM	34.8 µM	5.87 µM	10.5 µM	> 50 µM
C=C1C(=O)[C@]23[C@H](OC(=O)CCCC(=O)OCCCCCCOc4ccc(-c5cc(=S)ss5)cc4)[C@H]1CC[C@H]2[C@@]12CO[C@@]3(O)[C@@H](O)[C@@H]1C(C)(C)CC[C@@H]2OC(C)=O	> 50 µM	> 50 µM	> 50 µM	> 50 µM	13.9 µM	15.6 µM	> 50 µM
O=c1[nH]cc(F)c(=O)[nH]1 [FLUOROURACIL]	> 50 µM	> 50 µM	12.6 µM	26.7 µM	–	32.6 µM	–
C=C1C(=O)[C@]23[C@H](OC(=O)CCC(=O)OCCCOc4ccc(-c5cc(=S)ss5)cc4)[C@H]1CC[C@H]2[C@@]12CO[C@@]3(O)[C@@H](O)[C@@H]1C(C)(C)CC[C@@H]2OC(C)=O	22.3 µM	> 50 µM	16.4 µM	20.8 µM	2.44 µM	6.3 µM	22.1 µM
Oc1ccc(-c2cc(=S)ss2)cc1	> 50 µM	> 50 µM	> 50 µM	> 50 µM	> 50 µM	> 50 µM	> 50 µM
C=C1C(=O)[C@]23[C@H](OC(=O)CCC(=O)OCCCOc4ccc(-c5cc(=S)ss5)cc4)[C@H]1CC[C@H]2[C@@]12CO[C@@]3(O)[C@@H](O)[C@@H]1C(C)(C)CCC2=O	> 50 µM	> 50 µM	> 50 µM	19.5 µM	7.12 µM	5.01 µM	14 µM
C=C1C(=O)[C@]23[C@H](OC(=O)CCCC(=O)OCCCOc4ccc(-c5cc(=S)ss5)cc4)[C@H]1CC[C@H]2[C@@]12CO[C@@]3(O)[C@@H](O)[C@@H]1C(C)(C)CCC2=O	27.2 µM	> 50 µM	39.9 µM	12.5 µM	3.59 µM	2.58 µM	23.7 µM
C=C1C(=O)[C@]23[C@H](O)[C@H]1CC[C@H]2[C@@]12CO[C@@]3(O)[C@@H](O)[C@@H]1C(C)(C)CC[C@@H]2OC(C)=O [LASIOKAURIN]	25.4 µM	> 50 µM	32.6 µM	19.8 µM	5.21 µM	11.9 µM	13.5 µM
C=C1C(=O)[C@]23[C@H](OC(=O)CCCC(=O)OCCOc4ccc(-c5cc(=S)ss5)cc4)[C@H]1CC[C@H]2[C@@]12CO[C@@]3(O)[C@@H](O)[C@@H]1C(C)(C)CC[C@@H]2O	39.1 µM	> 50 µM	> 50 µM	18.3 µM	4.89 µM	6.6 µM	38.4 µM
C=C1C(=O)[C@]23[C@H](OC(=O)CCC(=O)OCCOc4ccc(-c5cc(=S)ss5)cc4)[C@H]1CC[C@H]2[C@@]12CO[C@@]3(O)[C@@H](O)[C@@H]1C(C)(C)CC[C@@H]2OC(C)=O	29.9 µM	> 50 µM	> 50 µM	24.7 µM	2.85 µM	5.89 µM	36.9 µM
